From US6818638B2, “Melvinolin derivatives” (Novartis AG, priority 1999, dated 2004)

Columns and labels:
[1] = biological target: T1, human LFA-1 / human ICAM-1 (Homo sapiens, UniProt P20701); test: Cell free assay: binding of soluble human ICAM-1 to immobilized human LFA-1; details: cell free assay Ai); read-out: IC50, inhibition of adhesion of LFA-1 to ICAM-1
T1 construct: endogenous in cells; ICAM-1-Cκ: made in house in the baculovirus system
Method: The assay measures the binding of soluble human ICAM-1 to Immobilized human LFA-1 is purified from JY cells, a human lymphoblastoid B cell-line, by immunoaffinity chromatography as described by Dustin et al. (J. Immunol. 148, 2654-2663, 1992). ICAM-1 mouse Cκ fusion protein (ICAM-1) is produced using the baculovirus system as described by Weitz-Schmidt et al. (Anal. Biochem.238,184-190, 1996).
Purified LFA-1 is diluted 1:20 in phosphate buffered saline (PBS) containing 2 mM MgCl2, pH 7.4 and coated onto microtitre plates (Nunc) at 37° C. for 3h. Plates are blocked with 1% heat-treated BSA in PBS for 2 hours at 37° C. followed by a washing step using PBS, 2 mM MgCl2, 1% fetal calf serum, pH 7.4 (assay buffer). Compounds dissolved at 10 mM in DMSO are diluted in assay buffer and added to the plates. Biotinylated recombinant ICAM-1 in assay buffer (6 μg/ml) is added and allowed to bind at 37° C. for one hour. After incubation, wells are washed with assay buffer. Streptavidin-peroxidase diluted 1:5000 in assay buffer is added and incubated for 45 min at 37° C. Plates are then washed with assay buffer and 2.2′-azino-bis(3-ethylbenzothiazoline-6 sulfonic acid) diammonium salt substrate solution is added to each well. The reaction is stopped after 20 min and bound ICAM-1 is determined by measuring the optical density at 405 nm in a microplate reader.
In this assay, compounds of formula I inhibit adhesion of LFA-1 to ICAM-1 with an IC50≦30 μM, preferably 0.05 to 30 μM.

[2] = tested on: thioglycollate induced neutrophil migration; test: Murine Thioglycollate Induced Peritonitis; format: in vivo, mice; details: Mus musculus, Neutrophil, po; p.o.; neutrophils in peritoneal lavage after 4 hours; read-out: ED50 in test Bi)
[3] = tested on: oxazolone-induced allergic contact dermatitis; test: Allergic Contact Dermatitis (ACD), oxazolone-sensitized mice; format: in vivo
Method: Groups of oxazolone-sensitized mice are challenged with 10 μl of 0.2 or 2.0% oxazolone on the inner surface of the right to eliciate ACD. The low concentration of oxazolone is used for testing compounds on systemic activity whereas the high concentration is applied for topical testing. The unchallenged left ears serve as normal controls and dermatitis is evaluated from the individual differences in pinnal weight, which is taken as a measure of increase in inflammatory swelling 24 h after the challenge. Dermatitis is evaluated in test- and for comparison in control groups. The test groups are treated with the test compounds either orally (twice, 2 h and immediately before challenge), subcutaneously (immediately before challenge) or topically (30 min after challenge at the site of elicitation of the ACD); the controls are treated similarly with the vehicles alone. For oral and subcutaneous administration the compounds are administered in an oil in water emulsion, for topical administration the compounds are prepared in a mixture of ethanol, acetone and dimethylacetamide. The data of the test- and the vehicle-treated control groups are statistically analysed by ANOVA followed by Dunnet T-test (normal distribution or data) or by H and U-test, respectively. […]

[4] = tested on: Peripheral blood mononuclear cells (PBMC); test: Human Mixed Lymphocyte Reaction (MLR); format: cell-based; details: 2-way reactions, six days, 3H-thymidine, read-out: IC50, 50% inhibition of cell proliferation in MLR
Method: Peripheral blood mononuclear cells (PBMC) are isolated from human buffy coats. In each experiment, PBMC from three different donors (A, B, and C) are set up in three individual 2-way reactions (A-B, A-C, B-C). Cells are cocultured for six days and proliferation is determined by pulsing the cells with ^3H-thymidine. The concentration of compounds of formula I which results in 50% inhibition of cell proliferation (IC50) is calculated.

T1 sequence (P20701 26-1170): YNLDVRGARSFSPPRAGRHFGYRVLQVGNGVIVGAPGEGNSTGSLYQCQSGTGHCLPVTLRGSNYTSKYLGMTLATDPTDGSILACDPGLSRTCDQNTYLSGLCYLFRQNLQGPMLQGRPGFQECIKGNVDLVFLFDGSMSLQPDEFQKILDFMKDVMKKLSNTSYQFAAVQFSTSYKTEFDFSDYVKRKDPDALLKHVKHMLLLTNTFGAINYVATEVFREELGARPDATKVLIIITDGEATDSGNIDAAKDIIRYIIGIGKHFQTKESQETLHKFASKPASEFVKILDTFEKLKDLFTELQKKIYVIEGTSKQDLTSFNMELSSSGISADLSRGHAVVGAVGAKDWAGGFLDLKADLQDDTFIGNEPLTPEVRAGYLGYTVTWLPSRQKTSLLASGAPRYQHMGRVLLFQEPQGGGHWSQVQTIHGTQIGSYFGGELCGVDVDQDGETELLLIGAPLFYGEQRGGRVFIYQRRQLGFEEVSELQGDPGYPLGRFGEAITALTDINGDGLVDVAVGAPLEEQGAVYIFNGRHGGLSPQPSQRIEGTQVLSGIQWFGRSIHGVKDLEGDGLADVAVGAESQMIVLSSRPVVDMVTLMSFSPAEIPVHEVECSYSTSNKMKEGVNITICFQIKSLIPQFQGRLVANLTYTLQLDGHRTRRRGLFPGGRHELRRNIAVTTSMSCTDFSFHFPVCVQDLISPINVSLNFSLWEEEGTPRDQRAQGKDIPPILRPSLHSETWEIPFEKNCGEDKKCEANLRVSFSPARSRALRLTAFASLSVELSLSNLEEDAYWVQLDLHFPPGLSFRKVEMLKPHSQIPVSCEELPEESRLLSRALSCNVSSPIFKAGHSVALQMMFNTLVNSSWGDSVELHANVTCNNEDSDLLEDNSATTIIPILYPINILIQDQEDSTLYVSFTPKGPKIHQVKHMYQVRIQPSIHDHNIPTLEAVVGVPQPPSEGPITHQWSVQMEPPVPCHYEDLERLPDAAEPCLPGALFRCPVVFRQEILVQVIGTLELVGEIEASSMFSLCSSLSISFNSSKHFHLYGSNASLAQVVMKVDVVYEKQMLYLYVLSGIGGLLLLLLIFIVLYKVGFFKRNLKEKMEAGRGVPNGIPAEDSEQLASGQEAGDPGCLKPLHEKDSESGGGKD
T1 sequence (P05107 23-769 partner): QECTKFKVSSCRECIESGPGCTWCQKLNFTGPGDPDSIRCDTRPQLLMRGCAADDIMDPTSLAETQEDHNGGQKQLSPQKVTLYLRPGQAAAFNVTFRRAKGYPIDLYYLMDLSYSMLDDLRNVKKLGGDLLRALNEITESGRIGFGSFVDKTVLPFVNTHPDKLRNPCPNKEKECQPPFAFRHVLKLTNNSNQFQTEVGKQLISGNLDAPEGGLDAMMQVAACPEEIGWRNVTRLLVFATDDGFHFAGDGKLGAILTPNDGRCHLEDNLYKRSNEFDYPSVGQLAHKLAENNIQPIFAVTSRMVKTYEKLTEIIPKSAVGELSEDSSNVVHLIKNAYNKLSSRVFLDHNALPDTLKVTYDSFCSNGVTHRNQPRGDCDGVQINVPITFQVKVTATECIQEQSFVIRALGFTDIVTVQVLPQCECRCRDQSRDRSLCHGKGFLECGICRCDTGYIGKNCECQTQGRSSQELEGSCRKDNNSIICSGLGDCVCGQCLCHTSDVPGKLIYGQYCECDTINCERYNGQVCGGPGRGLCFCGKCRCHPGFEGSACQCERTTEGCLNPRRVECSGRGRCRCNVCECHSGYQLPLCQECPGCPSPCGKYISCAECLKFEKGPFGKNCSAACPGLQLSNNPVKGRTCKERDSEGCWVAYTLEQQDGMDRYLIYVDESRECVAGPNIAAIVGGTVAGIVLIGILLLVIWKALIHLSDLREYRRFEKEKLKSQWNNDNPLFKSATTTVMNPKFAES

Row | IC50 [1] [nM] | SMILES | ED50 [2] [µg/kg] | inhibiting effect in ACD ([3]; p.o. at a dose of 2×3 mg/kg) [%] | IC50 [4] [nM] | inhibition of inflammatory swelling in ACD ([3]; 2x 1 mg/kg p.o.) [%]
1 | 790 | CC[C@H](C)C(=O)O[C@H]1C[C@@H](C)C[C@@H]2CC[C@H](C)[C@H](CC[C@@H](O)C[C@@H](O)CC(=O)NCc3ccc(OC)c(OC)c3)[C@H]21 [compound 28, (S)-2-Methyl-butyric acid (S)-(3S,4aS,7S,8S,8aS)-8-[(3R,5)6-(3,4-dimethoxy-benzylcarbamoyl)-3,5-dihydroxy-hexyl]-3,7-dimethyl-decahydro-naphthalen-1-yl ester] |  |  |  | 
2 | 50 | CC[C@H](C)C(=O)O[C@H]1C[C@@H](C)C=C2C=C[C@H](C)[C@H](CC[C@@H]3C[C@H](CC(=O)NC)N(Cc4ccc(O)c(OC)c4)C(=O)O3)[C@H]21 [Ex. 2] | 0.1 | 41 | 200 | 
3 | 190 | CC[C@H](C)C(=O)O[C@H]1C[C@@H](C)C=C2C=C[C@H](C)[C@H](CC[C@H]3C[C@@H](O)CC(=O)N3Cc3ccc4c(CO)c(OC)ccc4c3)[C@H]21 [Ex. 34, (S)2-Methyl-butyric acid (1S,3R,7S,8S,8aR)-8-{2-[(2S,4R)4-hydroxy-1-(5-hydroxymethyl-6-methoxy-naphthalen-2-ylmethyl)-6-oxo-piperidin-2-yl]-ethyl}-3,7-dimethyl-1,2,3,7,8,8a-hexahydro-naphthalen-1-yl ester] |  |  |  | 41
